This is an account of results in patent publication US20230122463A1, “ORGANIC FINE PARTICLE” (DAIKIN INDUSTRIES, LTD., priority 2020, published 2023).

Data set [1] in a line: Solubility in water of polymer and of monomer. Format: physicochemical. The settings on record: thermodynamic from solid. As to the method:
For the solubility in water of the monomers, the respective monomers were added in small batches to a predetermined amount of water, and the solubility in water was determined from the amount of dissolution when no more monomer could be dissolved (floating, precipitation or deposition occurred, or the solution became clouded).

Data set [2] in a line: Water contact angle of polymer (spin-coated film, static contact angle). It counts as physicochemical. The conditions noted are these: homopolymer of the monomer; silicon wafer spin-coated with 1.0% chloroform solution; 2 µL water, 1 minute after the droplet reached the film. As to the method: For the water contact angle of the polymer, a silicon wafer substrate was spin-coated with a chloroform solution of the resulting polymer with a solid concentration of 1.0% and the static water contact angle was measured. The static contact angle was obtained by dropping 2 µL of water on a coating film and measuring the contact angle 1 minute after the droplet reached the film.

Take `C=CC(=O)OCCCCCCCCCCCCCCCCCC` [SA, stearyl acrylate]: the melting point was found to be 50 °C. Moreover, the solubility in data set [1] was less than 100 µg/mL. Also, the “Water contact angle of homopolymer” value in data set [2] amounted to 102 °.

With `C=C(C)C(=O)OCC(CC)CCCC` (stereo not shown) [EHMA, 2-ethyhexyl methacrylate], in data set [2], the “Water contact angle of homopolymer” value worked out at 97 °.

As a reminder, the solubility is the concentration that dissolves in the medium under given conditions. Read a high solubility as much dissolved substance. What is called melting point is the temperature, or range, at which the solid turns liquid.
